Measured values reported in patent US20260242416A1, “ANTIMICROBIAL PEPTIDES” (priority 2023, published 2026).
Values after ≈ are worked out from the molar mass of the structure shown. “Also recorded” adds a separate entry of the source. Like-named read-outs stand apart in the source and are kept apart here. Where a SMILES comes first, the peptide text is derived from it.

Columns and labels:
[1] = tested on: E. coli ATCC 25922; type: cell-based, Escherichia coli
Summary of the method: (§1)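 CLSI broth microdilution adapted for cationic peptides, in Mueller-Hinton broth, inoculum 2-8×10^5 cfu/mL. Peptides serially diluted from 128 to 0.5 μg/mL in polypropylene plates, incubated 20-24 h at 37° C. MIC = lowest concentration without visible growth.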

[2] = tested on: Salmonella enterica serovar Enteritidis (human clinical isolate); type: cell-based
Summary of the method: as §1

[3] = tested on: S. aureus ATCC 29213; type: cell-based, Staphylococcus aureus
Summary of the method: as §1

[4] = tested on: HEK293 cells; test: alamarBlue cell viability assay (cytotoxicity); type: cell-based, human; settings: concentrations up to 128 μg/mL
Experimental: The human embryonic kidney cell line HEK293 and the corresponding growth media and supplements were purchased from the ATCC. The cells were maintained in Eagle's Minimum Essential Medium (EMEM) supplemented with 10% fetal bovine serum (FBS) and 1% Penicillin-Streptomycin solution and grown in a 5% CO2 incubator at 37° C. […] Cells were incubated overnight to allow them to adhere. […] TX-100 was diluted to 2% in UltraPure deionized water and added as a positive control. Complete growth medium was added to the peptides and TX-100 containing wells. Spent growth medium of wells with adhered cells was replaced with the contents of wells containing serially diluted peptides or TX-100. Cells were incubated for four hours at 37° C. in 5% CO2 incubator. Growth medium containing peptides or TX-100 was replaced with fresh growth medium containing 10% (v/v) alamarBlue (Bio-Rad Laboratories, Hercules, CA, USA) and incubated for 20 h. Fluorescence was measured at excitation of 540 nm and emission of 590 nm in a Cytation 5 plate reader (Agilent BioTek, Winooski, VT, USA) and results recorded and analyzed with Gen5 software (Agilent BioTek, Winooski, VT, USA). The average fluorescence reads of TX-100 and growth media only wells were used to calculate 0% and 100% cell viability, respectively. The percentage of viable cells at each peptide concentration was determined by Formula 1: […]

[5] = tested on: E. coli ATCC 25922, Salmonella Enteritidis, S. aureus ATCC 29213; test: Broth microdilution, panel result (at least one / all strains), Example 2; type: cell-based; design: key to inhibitory activity (asterisk): *Indicates inhibitory activity; settings: for inhibitory activity (asterisk): Table 14, against at least one of E. coli ATCC 25922, Salmonella Enteritidis, S. aureus ATCC 29213
Summary of the method: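 CLSI broth microdilution adapted for cationic peptides, in MHB with a final inoculum of 2-8×10^5 cfu/mL in polypropylene plates. Peptides were serially diluted from 128 down to 0.5 μg/mL and incubated 20-24 h at 37° C. MIC is the lowest concentration with no visible growth.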

[6] = serovar Enteritidis (human clinical isolate)

MIC (ug/mL) E. coli ([1]; ATCC 25922)	MIC against E. coli ([1]; ATCC 25922) [µg/mL]	MIC (ug/mL) S. Enteritidis [2, 6]	MIC against Salmonella Enteritidis [2, 6] [µg/mL]	MIC (ug/mL) S. aureus ([3]; ATCC 29213)	SMILES	cytotoxicity [4]	inhibitory activity (asterisk) [5]	spectrum of antimicrobial activity ([5]; panel of E. coli, Salmonella Enteritidis, S. aureus, up to 128 μg/mL)	MIC (ug/mL) E. coli ([1]; Table 14, first value of the cell, three independent experiments, highest concentration tested 128) [µg/mL]	MIC (ug/mL) S. Enteritidis ([2]; Table 14, second value of the cell, three independent experiments, highest concentration tested 128) [µg/mL]	MIC (ug/mL) S. aureus ([3]; Table 14, third value of the cell, three independent experiments, highest concentration tested 128) [µg/mL]
2 to 4 µg/mL	2 to 4	4 to 8 µg/mL	4 to 8	> 128 µg/mL	CC(C)C[C@H](NC(=O)[C@H](CCCNC(=N)N)NC(=O)[C@@H]1CCCN1C(=O)[C@H](Cc1c[nH]cn1)NC(=O)[C@@H]1CCCN1C(=O)[C@@H]1CCCN1C(=O)[C@H](CCCNC(=N)N)NC(=O)[C@@H]1CCCN1C(=O)[C@@H]1CCCN1C(=O)[C@@H](NC(=O)[C@H](CCC(N)=O)NC(=O)[C@H](CCC(N)=O)NC(=O)[C@@H]1CCCN1C(=O)[C@H](CCCNC(=N)N)NC(=O)[C@@H]1CCCN1C(=O)[C@@H](N)CCCNC(=N)N)C(C)C)C(=O)N[C@@H](CCCNC(=N)N)C(=O)N[C@@H](CCCNC(=N)N)C(=O)O [PaVa1, RPRPQQVPPRPPHPRLRR] (H-RPRPQQVPPRPPHPRLRR-OH)	not to be toxic to HEK293 cells at any of the concentrations tested; also recorded: not toxic against either porcine erythrocytes or HEK293 cells					
8 to 16 µg/mL		4 to 8 µg/mL		4 to 8 µg/mL	CC(C)C[C@H](NC(=O)CN)C(=O)N[C@@H](CC(C)C)C(=O)NCC(=O)N[C@@H](CCCCN)C(=O)N[C@H](C(=O)N[C@@H](CC(C)C)C(=O)NCC(=O)N[C@H](C(=O)NCC(=O)N[C@@H](CCCCN)C(=O)N[C@@H](CCCCN)C(=O)N[C@H](C(=O)N[C@@H](CC(C)C)C(=O)N[C@@H](CS)C(=O)O)C(C)C)C(C)C)C(C)C [PeNi4, GLLGKVLGVGKKVLC] (H-GLLGKVLGVGKKVLC-OH; N-terminus and C-terminus assumed)		424.* GLLGKVLGVGKKVLC				
>128/>128/>128 ug/mL		>128/>128/>128 ug/mL		>128/>128/>128 ug/mL	C[C@H](NC(=O)CN)C(=O)N1CCC[C@H]1C(=O)N[C@@H](CCCCN)C(=O)NCC(=O)N[C@@H](CS)C(=O)N[C@@H](Cc1c[nH]c2ccccc12)C(=O)N[C@H](C(=O)N[C@@H](CCCCN)C(=O)N[C@@H](CO)C(=O)N[C@@H](Cc1ccc(O)cc1)C(=O)N1CCC[C@H]1C(=O)N1CCC[C@H]1C(=O)N[C@@H](CCCCN)C(=O)N1CCC[C@H]1C(=O)N[C@@H](CS)C(=O)N[C@@H](CO)C(=O)NCC(=O)N[C@@H](CCCCN)C(=O)N[C@@H](CCCNC(=N)N)C(N)=O)[C@@H](C)O [PeNi12] (H-GAPKGCWTKSYPPKPCSGKR-NH2; N-terminus and C-terminus assumed)			non-inhibitory against the panel of bacteria at the concentrations tested			
					CC[C@H](C)[C@H](NC(=O)[C@H](CO)NC(=O)[C@H](CC(C)C)NC(=O)[C@H](CO)NC(=O)[C@H](CCCCN)NC(=O)[C@H](CC(C)C)NC(=O)[C@H](C)NC(=O)[C@@H](N)[C@@H](C)O)C(=O)N[C@@H](CC(C)C)C(=O)N[C@@H](CCCCN)C(=O)N[C@@H](CCCCN)C(=O)N[C@@H](CC(C)C)C(=O)N[C@@H](C)C(=O)N[C@@H](CCCCN)C(=O)N[C@@H](CC(C)C)C(=O)N[C@@H](CC(N)=O)C(=O)N[C@@H](CCSC)C(=O)O [PoSn2, TALKSLSILKKLAKLNM] (H-TALKSLSILKKLAKLNM-OH; N-terminus and C-terminus assumed)		942.* TALKSLSILKKLAKLNM		64 to 128	> 128	> 128
64 to 128 µg/mL		> 128 µg/mL		> 128 µg/mL	CC[C@H](C)[C@H](NC(=O)CN)C(=O)N[C@@H](CC(C)C)C(=O)N[C@@H](CO)C(=O)NCC(=O)N[C@@H](CC(C)C)C(=O)N[C@@H](CC(C)C)C(=O)NCC(=O)N[C@@H](C)C(=O)NCC(=O)N[C@@H](CCCCN)C(=O)N[C@@H](CCCCN)C(=O)N[C@H](C(=O)N[C@H](C(=O)N[C@@H](CS)C(=O)NCC(=O)N[C@@H](CC(C)C)C(=O)N[C@@H](CO)C(=O)NCC(=O)N[C@@H](CCSC)C(=O)N[C@@H](CS)C(=O)O)C(C)C)[C@@H](C)CC [RaOm2] (H-GILSGLLGAGKKIVCGLSGMC-OH; N-terminus and C-terminus assumed)		629.* GILSGLLGAGKKIVCGLSGMC				
8 to 16 µg/mL		32 to 64 µg/mL		64 µg/mL (≈ 34.5 µM)	CC[C@H](C)[C@H](NC(=O)CN)C(=O)N[C@@H](Cc1ccccc1)C(=O)N[C@@H](CO)C(=O)N[C@@H](CC(C)C)C(=O)N[C@H](C(=O)N[C@@H](CCCCN)C(=O)NCC(=O)N[C@@H](C)C(=O)N[C@@H](C)C(=O)N[C@@H](CCCCN)C(=O)N[C@H](C(=O)N[C@H](C(=O)N[C@@H](C)C(=O)N[C@@H](CCCCN)C(=O)NCC(=O)N[C@@H](CC(C)C)C(=O)NCC(=O)N[C@@H](CCCCN)C(=O)O)C(C)C)C(C)C)[C@@H](C)CC [RaOm3, GIFSLIKGAAKVVAKGLGK] (H-GIFSLIKGAAKVVAKGLGK-OH; N-terminus and C-terminus assumed)		1099.* GIFSLIKGAAKVVAKGLGK				
4 to 8 µg/mL		32 µg/mL (≈ 15.7 µM)		64 to 128 µg/mL	CC(C)C[C@H](NC(=O)CN)C(=O)N[C@@H](CC(C)C)C(=O)NCC(=O)N[C@@H](CCCCN)C(=O)N[C@H](C(=O)N[C@@H](CC(C)C)C(=O)NCC(=O)N[C@H](C(=O)NCC(=O)N[C@@H](CCCCN)C(=O)N[C@@H](CCCCN)C(=O)N[C@H](C(=O)N[C@@H](CC(C)C)C(=O)N[C@@H](CS)C(=O)NCC(=O)N[C@H](C(=O)N[C@@H](CO)C(=O)NCC(=O)N[C@@H](CCCNC(=N)N)C(=O)N[C@@H](CS)C(=O)O)C(C)C)C(C)C)C(C)C)C(C)C [RaOm4] (H-GLLGKVLGVGKKVLCGVSGRC-OH; N-terminus and C-terminus assumed)		628.* GLLGKVLGVGKKVLCGVSGRC				
8 to 16 µg/mL		> 128 µg/mL		64 to 128 µg/mL	CC[C@H](C)[C@H](NC(=O)[C@H](CC(C)C)NC(=O)[C@H](CCCCN)NC(=O)[C@H](CC(C)C)NC(=O)CNC(=O)CNC(=O)[C@H](CCCCN)NC(=O)[C@@H](NC(=O)[C@H](CC(C)C)NC(=O)[C@H](CCCCN)NC(=O)CNC(=O)[C@@H](NC(=O)[C@H](CC(C)C)NC(=O)CN)C(C)C)C(C)C)C(=O)NCC(=O)N[C@@H](Cc1c[nH]cn1)C(=O)N[C@H](C(=O)N[C@@H](C)C(=O)N[C@@H](CC(N)=O)C(=O)NCC(=O)O)C(C)C [RaSi1] (H-GLVGKLVKGGLKLIGHVANG-OH; N-terminus and C-terminus assumed)		2.* GLVGKLVKGGLKLIGHVANG				
64 to 128 µg/mL		> 128 µg/mL		128 µg/mL (≈ 59.4 µM)	CC[C@H](C)[C@H](NC(=O)[C@H](CCCNC(=N)N)NC(=O)[C@H](CCCNC(=N)N)NC(=O)[C@@H]1CCCN1C(=O)[C@H](CS)NC(=O)[C@H](CS)NC(=O)[C@H](Cc1ccc(O)cc1)NC(=O)[C@H](CS)NC(=O)[C@H](CC(C)C)NC(=O)[C@@H](NC(=O)[C@H](CCCNC(=N)N)NC(=O)[C@@H](NC(=O)[C@H](Cc1ccccc1)NC(=O)[C@H](C)N)C(C)C)[C@@H](C)CC)C(=O)N[C@@H](CCCCN)C(=O)N[C@@H](CCCNC(=N)N)C(=O)N[C@@H](CCCNC(=N)N)C(=O)O [TeRu2, AFVRILCYCCPRRIKRR] (H-AFVRILCYCCPRRIKRR-OH; N-terminus and C-terminus assumed)		994.* AFVRILCYCCPRRIKRR				

SMILES	MIC (ug/mL) E. coli ([1]; ATCC 25922)	MIC against E. coli ([1]; ATCC 25922) [µg/mL]	MIC (ug/mL) S. Enteritidis [2, 6]	MIC against Salmonella Enteritidis [2, 6] [µg/mL]	MIC (ug/mL) S. aureus ([3]; ATCC 29213)	cytotoxicity [4]	inhibitory activity (asterisk) [5]	spectrum of antimicrobial activity ([5]; panel of E. coli, Salmonella Enteritidis, S. aureus, up to 128 μg/mL)	MIC (ug/mL) E. coli ([1]; Table 14, first value of the cell, three independent experiments, highest concentration tested 128) [µg/mL]	MIC (ug/mL) S. Enteritidis ([2]; Table 14, second value of the cell, three independent experiments, highest concentration tested 128) [µg/mL]	MIC (ug/mL) S. aureus ([3]; Table 14, third value of the cell, three independent experiments, highest concentration tested 128) [µg/mL]
CC[C@H](C)[C@H](N)C(=O)N[C@@H](CO)C(=O)N[C@H](C(=O)N[C@@H](CCCCN)C(=O)N[C@@H](CCC(=O)O)C(=O)N[C@@H](C)C(=O)N[C@@H](CC(C)C)C(=O)N[C@@H](CCC(=O)O)C(=O)N[C@@H](Cc1c[nH]cn1)C(=O)N[C@@H](CO)C(=O)N[C@@H](Cc1ccccc1)C(=O)N[C@@H](Cc1ccccc1)C(=O)N[C@@H](Cc1c[nH]cn1)C(=O)N[C@H](C(=O)N[C@H](C(=O)N1CCC[C@H]1C(=O)N[C@@H](CCCNC(=N)N)C(=O)N[C@@H](CCCCN)C(=O)N[C@@H](Cc1c[nH]c2ccccc12)C(=O)N[C@@H](CS)C(=O)N[C@@H](CCCCN)C(=O)N[C@@H](CCCCN)C(=O)N[C@@H](Cc1c[nH]cn1)C(=O)O)C(C)C)[C@@H](C)O)[C@@H](C)CC [PoSn1] (H-ISIKEALEHSFFHTVPRKWCKKH-OH)	64/>128/>128 ug/mL		64/>128/>128 ug/mL		64/>128/>128 ug/mL		936.* ISIKEALEHSFFHTVPRKWCKKH				
